PMC10170656 (RSC Chemical Biology, 2023)
Entries after “also recorded” stand apart in the source; their conditions may differ.

Columns and labels:
HCT116 cells = assay: Synergistic effect of TDP1 inhibitors with camptothecin; assay type: cell-based, human; conditions: concentrations below CC50, 72 h
[1] = Survival curve and cytotoxicity in HCT116 cells; assay type: cell-based; conditions: human, HCT116 cells (colon cancer cell line)
TDP1 = TDP1 (Homo sapiens, UniProt Q9NUW8); assay: biochemical; conditions: TDP1 IC50, Table 2: triazole, ether and phthalic acid isostere derivatives
TDP2 = target: T1, TDP2 (Homo sapiens, UniProt O95551); assay type: biochemical
T1 sequence (O95551 1-362): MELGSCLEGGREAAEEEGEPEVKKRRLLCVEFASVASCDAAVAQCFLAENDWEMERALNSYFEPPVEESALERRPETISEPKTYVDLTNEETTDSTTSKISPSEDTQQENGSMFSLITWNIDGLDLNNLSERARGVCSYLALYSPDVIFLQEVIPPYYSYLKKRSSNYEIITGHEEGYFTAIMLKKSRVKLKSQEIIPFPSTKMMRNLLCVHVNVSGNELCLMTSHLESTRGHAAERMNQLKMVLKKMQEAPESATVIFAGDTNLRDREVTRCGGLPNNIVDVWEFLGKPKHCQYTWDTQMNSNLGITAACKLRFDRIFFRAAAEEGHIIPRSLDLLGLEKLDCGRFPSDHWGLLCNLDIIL

Sequence of TDP1 (Q9NUW8 whole entry): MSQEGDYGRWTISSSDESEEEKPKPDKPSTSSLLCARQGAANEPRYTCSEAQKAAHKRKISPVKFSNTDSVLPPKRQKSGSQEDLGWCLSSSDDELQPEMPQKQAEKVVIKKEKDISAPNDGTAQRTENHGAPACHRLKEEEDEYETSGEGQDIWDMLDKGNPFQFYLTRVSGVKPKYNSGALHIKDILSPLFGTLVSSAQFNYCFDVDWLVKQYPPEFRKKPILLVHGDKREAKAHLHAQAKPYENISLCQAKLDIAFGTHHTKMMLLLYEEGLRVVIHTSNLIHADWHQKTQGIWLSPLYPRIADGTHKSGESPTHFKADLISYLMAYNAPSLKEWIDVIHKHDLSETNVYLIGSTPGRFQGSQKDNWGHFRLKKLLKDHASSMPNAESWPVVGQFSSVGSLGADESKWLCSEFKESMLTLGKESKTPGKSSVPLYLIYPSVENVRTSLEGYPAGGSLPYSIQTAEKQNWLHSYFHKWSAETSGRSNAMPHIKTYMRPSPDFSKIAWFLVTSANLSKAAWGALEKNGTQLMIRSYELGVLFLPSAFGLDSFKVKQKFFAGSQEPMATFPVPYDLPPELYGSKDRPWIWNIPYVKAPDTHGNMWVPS

| IC50 (TDP1) [µM] | inhibitory potency against TDP1 relative to TDP2 (TDP2) [fold] | Structure (SMILES) | synergy with the TOP1 inhibitor CPT (HCT116 cells) | CC50 at 72 h [1] [µM] |
| --- | --- | --- | --- | --- |
| 3.3 ± 0.2 | 8 | N#Cc1ccc(-c2ccc(Cn3cc(-c4ccc(-c5nc6cc(-c7ccccc7)ccn6c5Nc5ccc(C(=O)O)cc5)cc4)nn3)cc2)nc1 [Compound 7d] | act synergistically; also recorded: synergize | 136 |
| > 100 | – | O=C(O)c1ccc(Nc2c(-c3ccccc3)nc3cc(-c4ccccc4)ccn23)cc1C(=O)O [Compound 9a, 4-((2,7-diphenylimidazo[1,2-a]pyridin-3-yl)amino)phthalic acid] | – | – |
| 11.3 ± 1.93 | – | O=C(O)c1ccc(Nc2c(-c3ccc(CCOCc4ccc(-c5ccccc5)cc4)cc3)nc3cc(-c4ccccc4)ccn23)cc1C(=O)O [Compound 9b, 4-((2-(4-(2-([1,1'-biphenyl]-4-ylmethoxy)ethyl)phenyl)-7-phenylimidazo[1,2-a]pyridin-3-yl)amino)phthalic acid] | – | – |
| 19.8 ± 1.35 | – | O=C(O)c1ccc(Nc2c(-c3ccc(CCOCc4ccc(-c5ccccn5)cc4)cc3)nc3cc(-c4ccccc4)ccn23)cc1C(=O)O [Compound 9c, 4-((7-phenyl-2-(4-(2-((4-(pyridin-2-yl)benzyl)oxy)ethyl)phenyl)imidazo[1,2-a]pyridin-3-yl)amino)phthalic acid] | – | – |
